Data taken from ChEMBL document CHEMBL5608234, “Heat Shock Protein 90 Interactome-Mediated Proteolysis Targeting Chimera (HIM-PROTAC) Degrading Glutathione Peroxidase 4 to Trigger Ferroptosis” (J Med Chem, 2024).
Activity calls are given as the source filed them. The calls are words filed in the database; no cut-off is given here.

Key:
[1] = system: HT-1080; assay: HIM-PROTAC activity at GPX4/HSP90/E3 ligase in human HT-1080 cells assessed as reduction in GPX4 level at 0.1 to 3 uM incubated for 24 hrs by Western blotting analysis; format: cell-based; conditions: dose 0.1-3 µM
[2] = system: HT-1080; assay: Cytotoxicity against human HT-1080 cells incubated for 48 hrs by CCK-8 assay; format: functional, cell-based; conditions: HT-1080, 48 h
[3] = system: HT-1080; assay: HIM-PROTAC activity at GPX4/HSP90/E3 ligase in human HT-1080 cells assessed as reduction in GPX4 level at 1 uM incubated for 24 hrs by Western blotting analysis; format: cell-based
[4] = system: HT-1080; assay: HIM-PROTAC activity at GPX4/HSP90/E3 ligase in human HT-1080 cells assessed as reduction in GPX4 level at 1 uM incubated for 24 hrs in presence of 2-chloro-N-(3-chloro-4-methoxyphenyl)-N-(2-oxo-2-(phenethylamino)-1-(thiophen-2-yl)ethyl)acetamide by Western blotting analysis; format: cell-based
[5] = Toxicity in BALB/c mouse xenografted with human HT-1080 cells assessed as animal death at 25 mg/kg, ip administered once daily measured after 10 days in presence of 2-chloro-N-(3-chloro-4-methoxyphenyl)-N-(2-oxo-2-(phenethylamino)-1-(thiophen-2-yl)ethyl)acetamide; format: organism-based; conditions: in vivo, 240 h, time 10 day
[6] = Toxicity in BALB/c mouse xenografted with human HT-1080 cells assessed as animal death at 25 mg/kg, ip administered once daily measured after 10 days in presence of 6-chloro-9-((4-methoxy-3,5-dimethylpyridin-2-yl)methyl)-9H-purin-2-amine; format: organism-based; conditions: in vivo, 240 h, time 10 day
[7] = system: HT-1080; assay: HIM-PROTAC activity at GPX4/HSP90/E3 ligase in human HT-1080 cells assessed as reduction in GPX4 level at 1 uM incubated for 24 hrs in presence of 6-chloro-9-((4-methoxy-3,5-dimethylpyridin-2-yl)methyl)-9H-purin-2-amine by Western blotting analysis; format: cell-based
[8] = system: HT-1080; assay: Cytotoxicity against human HT-1080 cells incubated for 48 hrs in presence of Fer-1 by CCK-8 assay; format: functional, cell-based; conditions: HT-1080, 48 h
[9] = system: HT-1080; assay: Induction of ferroptosis in human HT-1080 cells assessed as fold increase in cytotoxic IC50 incubated for 48 hrs in presence of Fer-1 by CCK-8 assay; format: functional
[10] = system: HT-1080; assay: HIM-PROTAC activity at GPX4/HSP90/E3 ligase in human HT-1080 cells assessed as reduction in GPX4 level at 0.3 uM incubated for 24 hrs by Western blotting analysis relative to control; format: cell-based; parameters: scale not given: the % may be the effect or the level left

SMILES	Activity [1]	IC50 [2] [nM]	other results
Nc1ncnc2c1nc(Sc1cc3c(cc1I)OCO3)n2CCOCCOCCNC(=O)Cn1cc(COc2ccc(N(C(=O)CCl)C(C(=O)NCCc3ccccc3)c3cccs3)cc2Cl)nn1 (centres undefined)	Active	1500	
COc1c(C)cnc(Cn2cnc3c(NCCOCCOCCOCCOCCOCCn4cc(COc5ccc(N(C(=O)CCl)C(C(=O)NCCc6ccccc6)c6cccs6)cc5Cl)nn4)nc(N)nc32)c1C (centres undefined)	Active	3500	
COc1c(C)cnc(Cn2cnc3c(NCCCCNC(=O)Cn4cc(COc5ccc(N(C(=O)CCl)C(C(=O)NCCc6ccccc6)c6cccs6)cc5Cl)nn4)nc(N)nc32)c1C (centres undefined)	Active	1100	
COc1c(C)cnc(Cn2cnc3c(Cl)nc(N)nc32)c1C [BIIB021]		16200	Activity [3]: inactive; Activity [4]: inactive; Activity [5]: Toxic
COc1c(C)cnc(Cn2cnc3c(NCCOCCOCCOCCOCCNC(=O)Cn4cc(COc5ccc(N(C(=O)CCl)C(C(=O)NCCc6ccccc6)c6cccs6)cc5Cl)nn4)nc(N)nc32)c1C (centres undefined)	Active	15200	
COc1c(C)cnc(Cn2cnc3c(N4CCC(NC(=O)Cn5cc(COc6ccc(N(C(=O)CCl)C(C(=O)NCCc7ccccc7)c7cccs7)cc6Cl)nn5)CC4)nc(N)nc32)c1C (centres undefined)	Active	2400	
COc1c(C)cnc(Cn2cnc3c(N4CCC(C5CCN(C(=O)Cn6cc(COc7ccc(N(C(=O)CCl)C(C(=O)NCCc8ccccc8)c8cccs8)cc7Cl)nn6)CC5)CC4)nc(N)nc32)c1C (centres undefined)	Active	980	
COc1c(C)cnc(Cn2cnc3c(NCCOCCOCCNC(=O)Cn4cc(COc5ccc(N(C(=O)CCl)C(C(=O)NCCc6ccccc6)c6cccs6)cc5Cl)nn4)nc(N)nc32)c1C (centres undefined)	Active	2600	
COc1c(C)cnc(Cn2cnc3c(NCCOCCOCCn4cc(COc5ccc(N(C(=O)CCl)C(C(=O)NCCc6ccccc6)c6cccs6)cc5Cl)nn4)nc(N)nc32)c1C (centres undefined)	Active	1000	
Nc1ncnc2c1nc(Sc1cc3c(cc1I)OCO3)n2CCNC(=O)Cn1cc(COc2ccc(N(C(=O)CCl)C(C(=O)NCCc3ccccc3)c3cccs3)cc2Cl)nn1 (centres undefined)	Active	900	
COc1ccc(N(C(=O)CCl)C(C(=O)NCCc2ccccc2)c2cccs2)cc1Cl (centres undefined)		760	Activity [6]: Toxic; Activity [7]: inactive; Activity [3]: inactive; IC50 [8]: 2000 nM; fold change (FC) [9]: 3
COc1c(C)cnc(Cn2cnc3c(NCCC4CCN(C(=O)Cn5cc(COc6ccc(N(C(=O)CCl)C(C(=O)NCCc7ccccc7)c7cccs7)cc6Cl)nn5)CC4)nc(NC(C)=O)nc32)c1C (centres undefined)	Active	15500	
Nc1ncnc2c1nc(Sc1cc3c(cc1I)OCO3)n2CCNC(=O)CCNC(=O)Cn1cc(COc2ccc(N(C(=O)CCl)C(C(=O)NCCc3ccccc3)c3cccs3)cc2Cl)nn1 (centres undefined)	Active	56100	
COc1c(C)cnc(Cn2cnc3c(N4CCC(N5CCN(C(=O)Cn6cc(COc7ccc(N(C(=O)CCl)C(C(=O)NCCc8ccccc8)c8cccs8)cc7Cl)nn6)CC5)CC4)nc(N)nc32)c1C (centres undefined)	Active	1400	
O=C1CCC(N2C(=O)c3cccc(NCCOCCOCCOCCn4cc(COc5ccc(N(C(=O)CCl)C(C(=O)NCCc6ccccc6)c6cccs6)cc5Cl)nn4)c3C2=O)C(=O)N1 (centres undefined)		490	Activity [3]: Active
Nc1ncnc2c1nc(Sc1cc3c(cc1I)OCO3)n2CCNC(=O)CCCCCNC(=O)Cn1cc(COc2ccc(N(C(=O)CCl)C(C(=O)NCCc3ccccc3)c3cccs3)cc2Cl)nn1 (centres undefined)	Active	41500	
Nc1ncnc2c1nc(Sc1cc3c(cc1I)OCO3)n2CCCCCNC(=O)Cn1cc(COc2ccc(N(C(=O)CCl)C(C(=O)NCCc3ccccc3)c3cccs3)cc2Cl)nn1 (centres undefined)	Active	1300	Activity [10]: < 50%
NCCC1CCN(C(=O)Cn2cc(COc3ccc(N(C(=O)CCl)C(C(=O)NCCc4ccccc4)c4cccs4)cc3Cl)nn2)CC1 (centres undefined)	Active	8300	
COc1c(C)cnc(Cn2cnc3c(NCCOCCOCCOCCNC(=O)Cn4cc(COc5ccc(N(C(=O)CCl)C(C(=O)NCCc6ccccc6)c6cccs6)cc5Cl)nn4)nc(N)nc32)c1C (centres undefined)	Active	3200	
COc1c(C)cnc(Cn2cnc3c(N4CCN(C(=O)Cn5cc(COc6ccc(N(C(=O)CCl)C(C(=O)NCCc7ccccc7)c7cccs7)cc6Cl)nn5)CC4)nc(N)nc32)c1C (centres undefined)	Active	4100	
COc1c(C)cnc(Cn2cnc3c(NCCOCCNC(=O)Cn4cc(COc5ccc(N(C(=O)CCl)C(C(=O)NCCc6ccccc6)c6cccs6)cc5Cl)nn4)nc(N)nc32)c1C (centres undefined)	Active	2400	
